Assay results taken from US12122761B2, “2-azaspiro[3.4]octane derivatives as M4 agonists” (NOVARTIS AG, priority 2019, dated 2024).

What was measured:
[1] = molecular target: T1, human cloned CHRM3 receptor (M3_CHO cells) (Homo sapiens, UniProt P20309); experiment: CHRM3 Ca++ Flux Assay (agonist mode, FDSS 7000EX); assay type: cell-based; conditions: for EC50: agonist mode, geometric mean if tested more than once, read-out: M3 FDSS EC50
T1 construct: expressed in transfected cells; host or cells: CHO-K1
Procedure: (§1) The above examples were characterized by measuring the intracellular mobilization of Ca++ ions caused by signaling events mediated by the receptor. The Intra-cellular Calcium flux levels were captured by the highly sensitive Ca++ indicator, Calcium Assay Kit (BD Biosciences, Catalog Number 640178). The fluorescent activity from all receptors were monitored by the fluorescent imager, FDSS 7000EX (Hamamatsu) over a span of 3 minutes.
(§2) CHO-K1 cells stably expressing the human cloned CHRM3 receptor (M3_CHO cells) were grown and maintained in a monolayer culture with F12/HAM (Life Technologies) supplemented with 10% Fetal Bovine Serum, 1× Pen-Strep, and 0.4 mg/mL Geneticin in a humidified atmosphere (5% CO2) at 37° C. The cultures were grown to 80-9 0% confluency in T150 flasks (Corning) and washed with 1×DPBS and lifted with 0.05% Trypsin (Life Technologies). The cells were then spun (1K rpm, 3 minutes) and frozen using Recovery Cell Culture Freezing Media (Gibco Technologies). Cells were stored in liquid nitrogen and thawed a day before the assay. A similar procedure was used for cells stably expressing the human cloned CHRM5 receptor (M5_CHO).
(§3) Prior to the day of the assay, stable M3_CHO or M5_CHO cells were thawed and plated on Greiner 384 well black TC treated plates at 12K cells/well in F12/DMEM supplemented with 10% FBS (Hyclone) and kept overnight in a humidified atmosphere (5% CO2) at 37° C. The next day, cells were loaded with Ca^++ dye (BD Biosciences) using Loading Buffer (HBSS +Ca/+Mg, 20 mM HEPES, 2.5 mM Probenecid) and placed back in cell incubator for a minimum of 1 hour. After incubation, the dye was replaced with Assay Buffer (HBSS −Ca/−Mg, 20 mM HEPES, 2.5 mM Probenecid) and kept at room temperature in the dark before running on cell imager. The FDSS 7000EX (Hamamatsu) was used to acquire Ca^++ traces from cells treated with 11 point dose response of compounds in triplicate in order to generate dose response curves in agonist mode. All compounds were serially diluted in DMSO then prepared in Assay Buffer for Ca^++ flux studies. The dose response curves were generated from the average of triplicate wells obtained from each data point and used a non-linear regression of four parameter dose response algorithm. The Percent Activity (PA) was measured to EC100 of Carbachol.

[2] = molecular target: T2, human cloned CHRM5 receptor (M5_CHO) (Homo sapiens, UniProt P08912); experiment: CHRM5 Ca++ Flux Assay (agonist mode, FDSS 7000EX); assay type: cell-based; conditions: Percent Activity measured to EC100 of Carbachol; read-out: M5 FDSS PA
T2 construct: expressed in transfected cells; host or cells: CHO (M5_CHO)
T2 sequence (P08912 1-532): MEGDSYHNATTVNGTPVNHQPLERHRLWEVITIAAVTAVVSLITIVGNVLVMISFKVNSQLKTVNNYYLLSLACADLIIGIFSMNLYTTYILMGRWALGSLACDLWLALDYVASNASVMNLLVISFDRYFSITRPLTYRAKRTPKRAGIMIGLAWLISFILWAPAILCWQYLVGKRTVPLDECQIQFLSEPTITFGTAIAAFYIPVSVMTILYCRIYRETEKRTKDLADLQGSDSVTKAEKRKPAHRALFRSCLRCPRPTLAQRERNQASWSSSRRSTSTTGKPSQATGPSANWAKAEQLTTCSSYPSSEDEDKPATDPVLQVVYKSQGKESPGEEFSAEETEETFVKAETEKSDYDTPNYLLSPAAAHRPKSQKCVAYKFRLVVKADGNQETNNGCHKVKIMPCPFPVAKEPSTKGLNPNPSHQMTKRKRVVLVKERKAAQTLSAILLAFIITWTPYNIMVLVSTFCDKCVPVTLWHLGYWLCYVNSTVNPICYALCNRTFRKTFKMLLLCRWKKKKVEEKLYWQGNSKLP
Procedure: as §1, §2, §3

[3] = tested on: hyperactivity in mice induced by the stimulant d-amphetamine; conditions: general statement on clinically efficacious muscarinic antipsychotics; xanomeline used as positive control (1.0 mg/kg, SC); cited from earlier work
[4] = Percent Activity measured to EC100 of Carbachol

T1 sequence (P20309 whole entry): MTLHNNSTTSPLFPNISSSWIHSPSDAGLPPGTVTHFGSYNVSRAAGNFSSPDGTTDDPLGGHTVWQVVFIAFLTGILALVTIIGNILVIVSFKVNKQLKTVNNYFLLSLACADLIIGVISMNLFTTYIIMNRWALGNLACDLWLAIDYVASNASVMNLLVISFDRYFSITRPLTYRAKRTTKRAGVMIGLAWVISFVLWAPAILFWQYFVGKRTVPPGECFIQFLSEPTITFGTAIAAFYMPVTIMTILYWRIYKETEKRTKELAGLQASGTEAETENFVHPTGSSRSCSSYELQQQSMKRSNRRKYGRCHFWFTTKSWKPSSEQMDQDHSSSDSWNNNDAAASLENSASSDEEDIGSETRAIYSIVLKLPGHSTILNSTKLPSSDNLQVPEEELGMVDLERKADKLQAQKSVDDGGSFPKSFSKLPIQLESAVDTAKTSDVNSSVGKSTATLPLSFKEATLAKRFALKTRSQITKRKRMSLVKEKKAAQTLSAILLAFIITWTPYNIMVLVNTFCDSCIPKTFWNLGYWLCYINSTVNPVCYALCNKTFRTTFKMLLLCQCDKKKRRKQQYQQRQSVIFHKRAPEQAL

M3 FDSS PA [1, 4] [%] | EC50 [1] [µM] | Emax [2] [%] | Emax ([1]; Percent Activity measured to EC100 of Carbachol, read-out: M3 FDSS PA) [%] | Structure (SMILES) | activity in the amphetamine induced hyperlocomotion assay [3]
0 | > 25 | – | – | COc1ccccc1C1CCN([C@H]2CCC3(C2)CN(C(=O)C2COC2)C3)CC1 (single isomer, unassigned) [Example 8C, (S)-(6-(4-(2-methoxyphenyl)piperidin-1-yl)-2-azaspiro[3.4]octan-2-yl)(oxetan-3-yl)methanone or (R)-(6-(4-(2-methoxyphenyl)piperidin-1-yl)-2-azaspiro[3.4]octan-2-yl)(oxetan-3-yl)methanone] | –
0 | > 25 | – | – | COc1ccccc1C1CCN([C@H]2CCC3(C2)CN(C(=O)C2COC2)C3)CC1 (single isomer, unassigned) [Example 8D, (S)-(6-(4-(2-methoxyphenyl)piperidin-1-yl)-2-azaspiro[3.4]octan-2-yl)(oxetan-3-yl)methanone or (R)-(6-(4-(2-methoxyphenyl)piperidin-1-yl)-2-azaspiro[3.4]octan-2-yl)(oxetan-3-yl)methanone] | –
– | – | 0 | 0 | COc1cc(F)ccc1C1CCN([C@@H]2CCC3(C2)CN(C(=O)C2COC2)C3)CC1 [Example 6C, (R)-(6-(4-(4-fluoro-2-methoxyphenyl)piperidin-1-yl)-2-azaspiro[3.4]octan-2-yl)(oxetan-3-yl)methanone] | –
– | – | – | – | CCCCCCOc1nsnc1C1=CCCN(C)C1 [xanomeline] | active
